Source: US10668118B2, “Microbial consortium and uses thereof” (The Regents of the University of California, priority 2016, dated 2020)
“Also recorded” adds a separate entry of the source.

Tested on: CD4^+CD25^+FOXP3^+ cells
Assay: Ex vivo dendritic cell challenge and T cell co-culture with 12,13-DiHOME
Format: cell-based, human
Method: Ex vivo dendritic cell challenge and T cell co-culture. Fecal samples from five of ten NGM1 and seven of eight NGM3 neonates that had undergone metabolic profiling were used (biological replicates). Excluded samples from these groups had insufficient volume for analyses. Fecal samples were homogenized 1 g ml^−1 (w:v) in pre-warmed phosphate-buffered saline (PBS) containing 20% FBS (FBS). Samples were vortexed, incubated (37° C., 10 min) and centrifuged (14,000 rpm, 30 min). Supernatant was filter-sterilized through a 0.2-μm filter before being used in the dendritic cell (DC) T cell assay described below. PBS was used as the negative control. Treatment conditions used for the DiHOME experiment included: 75 μM, 130 μM and 200 μM 12,13 DiHOME (Cayman Chemical, Ann Arbor, Mich.) solubilized in 0.4%, 0.15% and 0.05% DMSO, respectively. DiHOME solutions were added to R10 media (Roswell Park Memorial Institute media 1640 with 10% heat-inactivated FBS (antigen activator) and 2 mM 1-glutamine and 100 U ml^−1 penicillin-streptomycin added; Life Technologies) and exposed to DCs within 1 h of preparation. Controls included PBS and DMSO (delivered in R10 media) at corresponding percentages used to dissolve the different concentrations of DiHOME.
Peripheral blood mononuclear cells (PBMCs) were purified from plasma obtained from healthy, de-identified human donors (Blood Centers of the Pacific, San Francisco, Calif.) through the cell-sourcing program that ensures donor confidentiality. Donors signed an agreement acknowledging that their blood may be used for research. PBMCs were isolated using Ficoll-Hypaque gradient centrifugation, washed twice with R10 media and incubated for 18 h. Dendritic cells (DCs) were isolated from PBMCs using the EasySep Human Pan-DC Pre-Enrichment Kit (STEMCELL Technologies, Vancouver, BC). DCs (0.5×10^6 cells ml^−1) from two donors (biological replication) were treated in triplicate (treatment replicate) with either cell-free fecal water ([…]) or varying concentrations of DiHOME, and cultured in R10 media supplemented with 10 ng ml^−1 GM-CSF and 20 ng ml^−1 IL-4 at 37° C.^27 for 2 d, for the fecal-water assay, or 5 d, for the DiHOME experiment. For the DiHOME experiment, freshly prepared media containing DiHOME or control exposures was replaced every 48 h. For the fecal-water experiment, the assay was repeated twice on one donor (technical replicates) and once on donor B owing to insufficient numbers of cells recovered from the latter donor. Treatment replicates were also considered biological replicates because the human donor cells are not clonal.
Twenty-four hours before co-culture with CD4^+ T cells, DC maturation was stimulated by using DC growth mediators (10 ng ml^−1 […] [(TNF-α), 10 ng ml^−1 IL-1b, 10 ng ml^−1 IL-6 and […] (PGE2)]. In preparation for co-culture, DCs were washed in fresh R10 media, counted via flow cytometry and plated in TexMACs Medium (Miltenyi Biotec, San Diego, Calif.) at 0.5×10^6 live CD45^+ cells per well.
Autologous T lymphocytes were purified from the PBMCs using a naïve CD4^+ T cell isolation kit (Miltenyi Biotec). After purification, naïve autologous CD4^+ T cells were suspended in the TexMACS Medium (Miltenyi Biotec) and added to the treated DCs at a ratio of 10:1 in the presence of soluble anti-CD28 and anti-CD49d ([…]). […] Cytokine secretion was evaluated by cytometric bead array, following the manufacturer's protocol (BD Biosciences). […]

With `CCCCCC(O)C(O)C/C=C\CCCCCCCC(=O)O` (centres unmarked) [12,13-DiHOME] the “proportion of CD4^+CD25^+FOXP3^+ cells” value (75 μM, compared to vehicle control (LME P=0.04)) was “significantly reduced”, the “proportion of CD4^+CD25^+FOXP3^+ cells” value (130 μM, compared to vehicle control (LME P<0.001)) was “significantly reduced” and the “effect size for the suppression of CD4^+CD25^+FOXP3^+” value (130 μM, preliminary assays) was “approximately seven”. The “proportion of CD4^+CD25^+FOXP3^+ cells” value (200 μM, compared to vehicle control (LME P=0.001)) was “significantly reduced” and the “proportion of CD4^+CD25^+FOXP3^+ cells” value (all concentrations examined, compared with vehicle treatment) was “recapitulated the effect of NGM3 fecal water; also recorded: reduced”.
